According to patent US12570612B2, “Substituted nitrogen heterocyclic compound and anesthetic effect thereof” (priority 2019, dated 2026):
Entries after “also recorded” stand apart in the source; their conditions may differ. Where two headings read alike, the source gives them in different places.

Columns and labels:
[1] = tested on: circulatory function of rats; details: rat, in vivo
H295R cell line [2] = assay: Adrenocortical function in vitro test: secretion of cortisol and corticosterone, Group B compounds; format: cell-based; details: H295R cells; for EC50: Homo sapiens, NCI-H295R, 0.1-10000 nM, HPLC-MS/MS
[3] = tested on: circulatory function of rats; details: rat, in vivo; remark: listed apart in the source
Protocol: First, animal models were established. […] At least one week after surgery, data were recorded.
Finally, the pharmacological effects, adverse reactions, and behavioral manifestations of the rats were observed and recorded
After data acquisition, the test was stopped.

Sprague-Dawley rats [4] = assay: animal or person; format: in vivo
Source text: (§1) Evaluating indicator: The end point of anesthesia: the disappearance of forepaw righting reflex (lorr) was used as the end point of anesthesia; General anesthesia effect: the disappearance of forepaw righting reflex in rats lasting for 30 seconds is taken as the index of general anesthesia effect; Anesthesia recovery index: the recovery of rat forepaw righting reflex was used as the index of anesthesia recovery.

Sprague-Dawley rats [5] = assay: Pharmacological characteristics at equivalent doses (2ED50), Group A compounds; format: in vivo; details: 2ED50, tail vein
Sprague-Dawley rats [6] = assay: animal or person; format: in vivo; remark: listed apart in the source
Source text: as §1, with “LORR” for “the disappearance of forepaw righting reflex (lorr)”

H295R cell line [7] = assay: Adrenocortical function in vitro test: secretion of cortisol and corticosterone, Group A compounds; format: cell-based; details: H295 cells; for EC50: Homo sapiens, 0.1-10000 nM, HPLC-MS/MS
[8] = tested on: circulatory function of rats; assay: Circulatory function of rats (MAP, HR) by implanted telemetry, Group D compounds; details: 2ED50, rats, FIG. 19-22
Source text: (§4) First, the animal model was established, and the left ventricular catheter, abdominal aorta catheter and electrocardiogram wire were placed. At least one week after the operation, the signal can be collected to start the test. At the beginning of the experiment, after the placement of the indwelling needle in the tail vein of rats, connect the extension tube, put the rats together with the feeding cage on the signal receiver and start collecting data. […] All compounds or drugs were given at a constant volume of 0.6 ml at a uniform rate of 0.1 ml/s.
Evaluation indexes: Collect the blood pressure, heart rate and other data of rats during and 15 minutes after administration, and judge the effect of the compound of the invention on the circulatory function of rats with the indexes of mean arterial pressure (MAP) and heart rate (HR).

Sprague-Dawley rats [9] = assay: Pharmacological effect and adverse reactions under the equivalent dose (2ED50), Group C compounds; format: in vivo; details: rat, in vivo
Source text: (§2) Evaluation index: onset time: from the completion of drug injection to the disappearance of forepaw righting reflex in rats; Duration of anesthesia: the time from the disappearance of rat forepaw righting reflex to the recovery of rat forepaw righting reflex; Recovery time of anesthesia: the time from the […] to complete recovery;

Sprague-Dawley rats [10] = assay: Pharmacological effect and adverse reactions under the equivalent dose (2ED50), Group D compounds; format: in vivo; details: rat, in vivo
Source text: as §2

[11] = tested on: circulatory function of rats; assay: Circulatory function of rats (MAP, HR) by implanted telemetry, Group C compounds; details: 2ED50, rats, FIG. 13-16
Source text: as §4

Sprague-Dawley rats [12] = assay: animal or person
Protocol: (§3) Adult male Sprague-Dawley rats (250-300 g) were selected for the experiment. […] The anesthesia effects of the compounds were assessed in rats using a LORR assay and a period >30 s was considered as an indicator of general anesthesia.

Sprague-Dawley rats [13] = assay: animal or person; remark: listed apart in the source
Protocol: as §3

[14] = read-out: EC50 (Corticosterone)
[15] = male, Sprague-Dawley, rat, in vivo

With `CC(C)c1cccc(C(C)C)c1O` [Propofol, propofol, reference compound] as the compound, how does the “inhibitory effect on the circulatory function (MAP, HR)” value [1] read?
Its value is “significant inhibition of the circulatory function”.

What about the “Corticosterone as an indicator to determine the presence of inhibition” value (H295R cell line [2]) of the same compound?
Its value is 0.

What about the “Cortisol as an indicator to determine the presence of inhibition” value (H295R cell line [2]) of the same compound?
The value was 0.

And the EC50 (H295R cell line [2]; [14])?
Its EC50 is > 10 µM.

What about the EC50 (H295R cell line [2]; read-out: EC50 (Cortisol)) of the same compound?
Its EC50 is > 10 µM.

What about the “inhibitory effect on the circulatory function (MAP, HR)” value [3] of the same compound?
The value was “significant inhibition of the circulatory function”.

What about the ED50 (Sprague-Dawley rats [4]; Rattus norvegicus) of the same compound?
The ED50 was 5.01 mg/kg.

What about the Minimal lethal dose (Sprague-Dawley rats [4]; [15]) of the same compound?
The Minimal lethal dose was 22.6 mg/kg.

And the Approximate therapeutic index (Sprague-Dawley rats [4]; rats)?
The Approximate therapeutic index was 4.0.

What about the Onset time (Sprague-Dawley rats [5]) of the same compound?
The Onset time was 0.19 ± 0.03 min.

What about the Righting reflex duration (Sprague-Dawley rats [5]) of the same compound?
The Righting reflex duration was 8.36 ± 2 min.

And the “Types and incidence of adverse reactions” value (Sprague-Dawley rats [5]; (animals affected/animals))?
The value was “Intermittent Tremor(6/8),; also recorded: Bucking (5/8),; also recorded: Tongue stretching(4/8),; also recorded: Forelimb rigidity (2/8),; also recorded: Hindlimb rigidity(2/8)”.

What about the ED50 (Sprague-Dawley rats [6]; Rattus norvegicus) of the same compound?
The ED50 was 5.01 mg/kg.

And the Minimal lethal dose (Sprague-Dawley rats [6]; [15])?
Its Minimal lethal dose is 22.6 mg/kg.

What about the Approximate therapeutic index (Sprague-Dawley rats [6]; rats) of the same compound?
The Approximate therapeutic index was 4.0.

And the “Corticosterone as an indicator to determine the presence of inhibition” value (H295R cell line [7])?
The value was 0.

And the “Cortisol as an indicator to determine the presence of inhibition” value (H295R cell line [7])?
The value was 0.

And the EC50 (H295R cell line [7]; [14])?
Its EC50 is > 10 µM.

And the EC50 (H295R cell line [7]; read-out: EC50 (Cortisol))?
Its EC50 is > 10 µM.

What about the “effect on the circulatory function (MAP, HR)” value [8] of the same compound?
Its value is “significant inhibition on the circulatory system function”.

What about the “Adverse reaction: Convulsions” value (Sprague-Dawley rats [9]) of the same compound?
The value was 0.

What about the “Adverse reaction: Cough, broken-winded” value (Sprague-Dawley rats [9]) of the same compound?
The value was 0.

And the “Adverse reaction: Euphoria” value (Sprague-Dawley rats [9])?
Its value is 0.

And the “Adverse reaction: Slower breathing, Tetany convulsion” value (Sprague-Dawley rats [9])?
The value was 2.

And the “Adverse reaction: Systemic stiffness, Convulsions, Opisthotonus” value (Sprague-Dawley rats [9])?
Its value is 0.

And the “Adverse reaction: Tongue stretching” value (Sprague-Dawley rats [9])?
Its value is 0.

And the “Adverse reaction: Tremor” value (Sprague-Dawley rats [9])?
Its value is 0.

And the “Adverse reaction: the four limbs rigidity” value (Sprague-Dawley rats [9])?
Its value is 2.

And the Onset time (Sprague-Dawley rats [9])?
Its Onset time is <30 s.

What about the Righting reflex duration (Sprague-Dawley rats [9]) of the same compound?
The Righting reflex duration was 8.53 ± 1.52 min.

What about the Sedation duration (Sprague-Dawley rats [9]) of the same compound?
The Sedation duration was 14.77 ± 3.50 min.

And the “Adverse reaction: Convulsions” value (Sprague-Dawley rats [10])?
The value was 0.

What about the “Adverse reaction: Cough, broken-winded” value (Sprague-Dawley rats [10]) of the same compound?
Its value is 0.

And the “Adverse reaction: Euphoria” value (Sprague-Dawley rats [10])?
The value was 0.

And the “Adverse reaction: Four limbs rigidity” value (Sprague-Dawley rats [10])?
The value was 1.

And the “Adverse reaction: Slower breathing, Tetany convulsion” value (Sprague-Dawley rats [10])?
Its value is 2.

What about the “Adverse reaction: Systemic stiffness, Convulsions, Opisthotonus” value (Sprague-Dawley rats [10]) of the same compound?
Its value is 0.

And the “Adverse reaction: Tongue stretching” value (Sprague-Dawley rats [10])?
Its value is 0.

And the “Adverse reaction: Tremor” value (Sprague-Dawley rats [10])?
The value was 2.

And the Onset time (Sprague-Dawley rats [10])?
Its Onset time is <30 s.

And the Righting reflex duration (Sprague-Dawley rats [10])?
Its Righting reflex duration is 8.53 ± 1.52 min.

What about the Sedation duration (Sprague-Dawley rats [10]) of the same compound?
Its Sedation duration is 14.77 ± 3.50 min.

And the “effect on the circulatory function (MAP, HR)” value [11]?
The value was “significant inhibition on the circulatory system function”.

What about the ED50 (Sprague-Dawley rats [12]; Rattus norvegicus) of the same compound?
The ED50 was 5.51 mg/kg.

And the Minimal lethal dose (Sprague-Dawley rats [12]; [15])?
The Minimal lethal dose was 28 mg/kg.

And the Approximate therapeutic index (Sprague-Dawley rats [12]; rats)?
The Approximate therapeutic index was 5.

What about the ED50 (Sprague-Dawley rats [13]; Rattus norvegicus) of the same compound?
The ED50 was 5.51 mg/kg.

What about the Minimal lethal dose (Sprague-Dawley rats [13]; [15]) of the same compound?
Its Minimal lethal dose is 28 mg/kg.

And the Approximate therapeutic index (Sprague-Dawley rats [13]; rats)?
Its Approximate therapeutic index is 5.
